Measurements published in patent US20240382544A1, “COMPOSITION FOR ANTI-OBESITY AND PREVENTING OR TREATING MUSCLE LOSS, CONTAINING CATECHIN GLYCOSIDE EXTRACT DERIVED FROM PLANT IN GENUS ULMUS AS ACTIVE INGREDIENT” (DR. OREGONIN INC., priority 2022, published 2024).
Entries after “also recorded” stand apart in the source; their conditions may differ.

System: 3T3-L1 cells
Test: Adipocyte differentiation (fat accumulation), Oil Red O staining
Assay type: cell-based, mouse
Experimental: 3T3-L1 cells, which are mouse-derived preadipocytes, were purchased from Korean Cell Line Bank. The 3T3-L1 cells were cultured using an DMEM medium (Welgene) supplemented with 10% bovine calf serum (BCF), 100 units/mL penicillin and 100 μg/mL streptomycin (complete DMEM medium) in a humidified CO2 incubator (5% CO2/95% air) at 37° C. When the cells filled about 80% of the culture dish, the cell monolayer was washed with phosphate-buffered saline (PBS, pH 7.4) and the cells were detached by adding trypsin-2.65 mM EDTA. Then, the cells were subcultured while replacing the medium every other day.
3T3-L1 cells were seeded onto a 24-well plate at 1×10^5 cells/well. When the cells reached confluence, differentiation into adipocytes was induced by culturing the cells while replacing the medium sequentially with three differentiation media (DM). That is to say, differentiation was induced for 2 days by replacing the medium with a differentiation medium wherein DMI (1 μM dexamethasone, 0.5 mM 3-isobutyl-1-methylxanthine (IBMX) and 5 μg/mL insulin) was added to a DMEM medium containing 10% FBS. Then, differentiation was induced again for 2 days by replacing the medium with a fresh differentiation medium wherein 5 μg/mL insulin was added to a DMEM medium containing 10% FBS. Then, differentiation into adipocytes was induced by maintaining the cells for 2 days in a DMEM medium containing 10% FBS. […]

OCC1(O)CO[C@@H](Oc2cc(O)c3c(c2)OC(c2ccc(O)c(O)c2)[C@@H](O)C3)C1O (stereo partly drawn) [catechin 7-O-β-D-apiofuranoside]
adipocyte differentiation-inhibiting ability (in words) (3T3-L1, concentration dependence): statistically significant adipocyte differentiation-inhibiting ability in a concentration-dependent manner; also recorded: inhibits the differentiation of adipocytes in a concentration-dependent manner with statistical significance | inhibition at 20 µg/mL (Mus musculus, 20 μg/mL (highest concentration tested), 3T3-L1, Oil Red O, read-out: adipocyte differentiation-inhibiting ability): ≥ 40%
